Data set [1] can be described thus: inhibitors of intracellular T. cruzi replication, confirmation, NIH3T3 host cells, beta-gal luminescence (AID 2044).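 Also: intracellular parasites grown in NIH/3T3 mouse fibroblasts as host cells; luminescent beta-galactosidase reporter signal from transgenic T. cruzi replicating inside host cells; inhibitors lower the luminescence signal.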 In kind it is functional, cell-based.
A short description of data set [2]: cytotoxicity toward NIH3T3 fibroblasts, dose response, counter-screen, cell-based, ATP luminescence, mouse fibroblasts (AID 2010).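 Also: cells exposed to compound for about 90 hours before reading.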 In kind it is functional.
A short description of data set [3]: NIH-3T3 fibroblast cytotoxicity, dose response, cytotoxicity control, cell-based, fluorescence, Alamar Blue, secondary assay (AID 2327).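 Also: NIH-3T3 mouse fibroblasts cultured with fluconazole at 8 µg/mL.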 In kind it is functional.
A short description of data set [4]: C. albicans growth with fluconazole, confirmation, fluorescence, retest (AID 2467). In kind it is functional, cell-based.
Data set [5] has as its target T1, Heat shock factor protein 1 (Mus musculus, UniProt P38532).
T1 sequence (P38532 whole entry): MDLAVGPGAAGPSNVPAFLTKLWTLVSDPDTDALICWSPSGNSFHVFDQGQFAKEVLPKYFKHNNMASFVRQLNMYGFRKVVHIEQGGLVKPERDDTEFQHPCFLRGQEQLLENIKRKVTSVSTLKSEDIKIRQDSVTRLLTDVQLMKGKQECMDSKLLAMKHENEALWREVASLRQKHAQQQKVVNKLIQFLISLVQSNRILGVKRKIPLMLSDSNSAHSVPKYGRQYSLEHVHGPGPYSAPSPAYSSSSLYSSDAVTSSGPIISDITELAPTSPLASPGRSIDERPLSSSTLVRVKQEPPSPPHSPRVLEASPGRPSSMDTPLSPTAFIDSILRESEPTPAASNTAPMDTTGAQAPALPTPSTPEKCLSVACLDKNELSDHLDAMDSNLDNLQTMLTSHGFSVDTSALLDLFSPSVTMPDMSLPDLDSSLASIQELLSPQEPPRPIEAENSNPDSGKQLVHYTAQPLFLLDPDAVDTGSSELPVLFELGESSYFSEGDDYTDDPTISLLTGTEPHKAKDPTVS
Put plainly: inhibition of MG132-induced HSE-luciferase signal, confirmation, cell-based, NIH3T3, luminescence, dose retest (AID 2382).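 Also: NIH3T3 fibroblasts with HSF1-driven luciferase reporter stressed by proteasome inhibitor MG132; luminescence from HSF1-driven luciferase expression after 8 hours of MG132 stress.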 In kind it is functional.

Data set [6] is described as follows: HEp-2 cell cytotoxicity, dose response, cytotoxicity control for RSV inhibitor project, HTS (AID 2410). The note with it: human respiratory syncytial virus. In kind it is functional.
A further data set concerns the target Cytochrome P450 2C19 (Homo sapiens, UniProt P33261). Put plainly: Cytochrome panel assay with activity outcomes. Panel member name: p450-cyp2c19 Compounds with AC50 equal or less than 10 uM are considered active. In kind it is functional.
The subject of a further data set is Streptococcus. The data set is described as follows: Group A Streptococcus viability loss, dose response, counter-screen for streptokinase expression inhibitor project, luminescence, BacTiterGlo (AID 1915).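 Also: potency for reduction of bacterial viability or growth.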 In kind it is functional, organism-based.
In data set [7] the test system is Streptococcus sp. 'group A'. Put plainly: growth inhibition of control SK(-) GAS strain, dose response, counter-screen for streptokinase expression inhibitor project, luminescence, kanamycin, BacTiterGlo, confirmation (AID 1900). In kind it is functional, organism-based.

Activity calls are given as the source filed them.

Chain of Cytochrome P450 2C19 (P33261 whole entry): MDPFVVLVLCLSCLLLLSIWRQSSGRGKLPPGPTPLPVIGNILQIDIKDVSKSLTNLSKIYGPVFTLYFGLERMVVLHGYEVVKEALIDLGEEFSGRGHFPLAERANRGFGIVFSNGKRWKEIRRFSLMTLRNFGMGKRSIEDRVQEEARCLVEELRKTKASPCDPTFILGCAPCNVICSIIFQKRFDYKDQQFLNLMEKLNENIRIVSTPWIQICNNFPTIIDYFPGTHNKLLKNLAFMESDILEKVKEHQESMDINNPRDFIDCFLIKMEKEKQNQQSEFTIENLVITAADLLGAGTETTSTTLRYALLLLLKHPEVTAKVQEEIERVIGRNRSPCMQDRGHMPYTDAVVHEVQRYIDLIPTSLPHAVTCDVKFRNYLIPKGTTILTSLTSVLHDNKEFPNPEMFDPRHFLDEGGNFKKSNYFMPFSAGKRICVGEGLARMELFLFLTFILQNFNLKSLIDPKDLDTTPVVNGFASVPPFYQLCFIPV

Turning to `Cc1c(O)cccc1C(=O)N[C@@H](CSc1ccccc1)[C@H](O)CN1C[C@H]2CCCC[C@H]2C[C@H]1C(=O)NC(C)(C)C`, the figures for the EC50 in data set [1] and in data set [2] were 3.42 µM (active) and > 60 µM (not active), respectively.

With `O=C(Cc1cccs1)Nc1cccc(-c2nc3ccccc3[nH]2)c1`, the figures for the EC50 in data set [3] and in [4] were > 150 µM (inconclusive) and 3.52 µM (active), respectively.

For the compound `Cn1c(=O)c2cn(-c3ccc4c(c3)OCCO4)cc2n(C)c1=O`, the 50% effective concentration (EC50) in data set [5] was > 195 µM (not active).

On to `CCC(=O)Nc1ccccc1C(=O)OCC(=O)c1ccc2ccccc2c1`, for which, in [6], the half-maximal cytotoxic concentration (CC50) is 25 µM (active).

Take `Nc1ccn([C@H]2O[C@@H](COP(=O)(O)O)[C@@H](O)[C@H]2O)c(=O)n1`: the AC50 result at Cytochrome P450 2C19 is given as “inconclusive”. As for `CCn1c2ccc(F)cc2c2nnc(SCCN3CCCCC3)nc21`, the concentration for a half-maximal effect (EC50) was 0.777 µM (active) in [1] and > 60 µM (not active) in data set [2]. `CC(C)(C)NS(=O)(=O)c1cc2c3c(c1)CCN3C(=O)CC2`: the EC50 in data set [5] is > 195 µM (not active). As to `COc1ccccc1Cn1c(=O)c2ccccc2n2c(Sc3ncnc4sccc34)nnc12`, in data set [6], the CC50 is 19.6 µM (active). As for `CSc1cc(-c2ccccc2)n(C)c(=O)c1C#N`, the results for the EC50 in data set [3] and in data set [4] were 117 µM (active) and > 38 µM (not active), respectively. Consider `CCNc1nc(NCC)nc(ON=C(C)C)n1`, for which, on Cytochrome P450 2C19 (read-out: AC50), the AC50 was 17.8 µM (inconclusive). For `CC(C)(C)c1csc(NC(=O)Cn2cnc3ccccc3c2=O)n1`, the figures for the EC50 in data set [3] and in data set [4] were > 150 µM (inconclusive) and > 38 µM (not active), respectively. For the compound `CCOc1ccc(CN2CCC(C(=O)N3CCN(c4ccccc4F)CC3)CC2)cc1OC`, the concentration giving a half-maximal response (EC50) in data set [1] is 0.182 µM (active); in data set [2], > 30 µM (not active). With `CC(C)C[C@H](NC(=O)c1[nH]cnc1C(=O)N[C@@H](Cc1ccccc1)C(=O)OC(C)(C)C)C(=O)OC(C)(C)C`, the results for the EC50 (in the data set on Streptococcus; in [7]) were 5.07 µM (active) and 2.33 µM (active), respectively. `CC(=O)NC12CC3CC(C1)CC(C(=O)Oc1ccc(N(C)S(=O)(=O)c4cc(C)ccc4C)cc1)(C3)C2`: the CC50 in data set [6] was 34.2 µM (active).

Regarding `Cn1c(=O)c(=O)n(C)c2cc(S(=O)(=O)NCCN3CCN(c4ccccc4F)CC3)ccc21`, the EC50 in data set [1] is 0.496 µM (active); in [2], > 60 µM (not active). Take `Nc1cccc(/C=C/C(=O)O)c1`: the EC50 in data set [5] is on record as > 195 µM (not active). With `CCCCNC(=O)NS(=O)(=O)c1cnccc1Sc1ccc(Cl)cc1`, the AC50 on Cytochrome P450 2C19 (read-out: AC50) was 22.4 µM (inconclusive). For the compound `COc1ccc(C(=O)C2CCCN(S(=O)(=O)c3ccccc3F)C2)c(C)c1` (centres undefined), in data set [5], the concentration giving a half-maximal response (EC50) is on record as > 195 µM (not active).

Take `CCN1C(=O)/C(=C2/C(=O)Nc3ccccc32)c2cc(Br)ccc21`: the EC50 in data set [1] is 1.3 µM (active); in data set [2], > 60 µM (inconclusive). With `Cc1cccc(OCC(=O)OC2CCN(C)CC2)c1`, in [5], the EC50 is reported as > 195 µM (not active). As to `Cc1nc2c(=O)oc3ccccc3c2n1-c1ccccc1`, the EC50 in data set [3] was > 150 µM (inactive); in [4], 2.15 µM (active).

With `COC(=O)c1cccc(NC(=O)CN2CCN(Cc3ccccc3)CC2)c1`, in data set [5], the EC50 was > 195 µM (not active).

On to `CCNc1nc(NC(C)C)nc(N2CC(=O)N(CC(=O)OCC)C2=N)n1`, for which the cytotoxic concentration (CC50) in data set [6] was 25.2 µM (active). For `COc1ccc(CCNC(=O)[C@H](C)N2C(=O)N3CCc4c([nH]c5ccccc45)[C@@]3(C)C2=O)cc1`, the EC50 was 1.97 µM (active) in [1] and > 60 µM (not active) in [2]. As for `O=C(CCc1ccc(Oc2cc([N+](=O)[O-])cc([N+](=O)[O-])c2)cc1)NC1CCCC1`, the figures for the EC50 in data set [1] and in [2] were 0.106 µM (active) and > 30 µM (not active), respectively. In the case of `O=C(CSCc1ccc(Cl)cc1)Nc1cc([N+](=O)[O-])ccc1O`, the EC50 in data set [3] was > 150 µM (inactive); in data set [4] it was 0.491 µM (active).

For `N#Cc1ccc(OCCOCCNC2CCCC2)cc1`, the values for the EC50 in [1] and in data set [2] were 0.2 µM (active) and > 60 µM (not active), respectively.

Consider `CC1(C)Cc2c(C#N)c(SCCOc3ccccc3)nc(N3CCOCC3)c2CO1`, for which the EC50 was 1.49 µM (active) in [1] and > 60 µM (not active) in data set [2]. In the same order, the values of `C=CCN(C(=O)CSC1=NC(=O)CN1C(C)=O)c1nc(C)c(-c2ccccc2)s1` are 1.58 µM (active) and > 30 µM (not active). In the case of `CNC(S)=Nc1sc2c(c1C(=O)OC)CCC2`, in data set [6], the cytotoxic concentration (CC50) is 36.2 µM (active). On to `CC(=O)COc1ccc2c3c(c(=O)oc2c1)CCCC3`, for which, in data set [6], the CC50 is > 50 µM (active).

Regarding `O=C(COC(=O)c1cc[n+]([O-])cc1)Nc1cccc(Cl)c1Cl`, the EC50 in data set [5] was 23 µM (active). `Fc1cccc(Cl)c1Cn1nnc(-c2ccc3c(c2)OCO3)n1`: in data set [6], the CC50 is 26.2 µM (active). For `O=C(NCC1CCCO1)c1cc2c3ccccc3nc-2c(-c2cccc(Br)c2)[nH]1` (centres undefined), the EC50 was 0.882 µM (active) in [1] and > 60 µM (not active) in [2]. `Cc1ccc(-c2csc(NC(=O)c3ccc(S(=O)(=O)N4CCc5ccccc54)cc3)n2)cc1`: in data set [5], the concentration giving a half-maximal response (EC50) was > 195 µM (not active).

On to `CN1CCN(Cc2ccc(Sc3ccc(Cl)cc3)c([N+](=O)[O-])c2)CC1`, for which the EC50 in data set [1] was 1.13 µM (active); in data set [2] it was > 60 µM (not active). Turning to `CCOc1ccc(NCC(=O)c2ccc(C)cc2)cc1`, the EC50 in [5] is > 195 µM (not active); in [1], 1.38 µM (active); in data set [2], > 30 µM (not active). Consider `Cc1ccccc1-c1nc2sc3c(c2c(=O)n1N)CCCC3`, for which, in data set [5], the half-maximal effective concentration (EC50) is given as > 195 µM (not active). Turning to `CCOc1ccc(CN(C)CC(=O)Nc2cccc(S(=O)(=O)N(C)c3ccccc3)c2)cc1`, the EC50 in data set [1] was 0.181 µM (active); in [2] it was > 60 µM (not active). Regarding `O=C(COC(=O)c1cc(Cl)ccc1O)NNC(=O)c1ccc([N+](=O)[O-])cc1`, the concentration for a half-maximal effect (EC50) in data set [5] was > 195 µM (not active). Consider `Cc1ccc(S(=O)(=O)N(C)c2c(C)ccc(S(=O)(=O)N3CCN(C)CC3)c2C)cc1`, for which the half-maximal effective concentration (EC50) in data set [5] is > 195 µM (not active). With `CN1CCN(Cc2cccc(Oc3ccc(Cl)cc3)c2)CC1`, the EC50 in data set [1] is 0.267 µM (active); in data set [2], > 60 µM (inconclusive). On to `Cc1ccccc1N1CCN(CCN2C(=O)CC(=C3c4ccccc4-c4ccccc43)C2=O)CC1`, for which the EC50 is > 160 µM (inactive) in data set [3] and 3.89 µM (active) in [4]. As for `O=C(Oc1ccc2ccc(=O)oc2c1)c1ccco1`, the EC50 in data set [1] and in data set [2] was > 60 µM (not active) each time.

Regarding `COC(=O)C1=C(C)N(c2ccc(Cl)cc2)/C(=C/c2ccc(O)cc2)C1=O`, in data set [6], the cytotoxic concentration (CC50) is 36.3 µM (active). In the case of `CCCCCCCCn1c(N2CCN(c3cccc(Cl)c3)CC2)nc2c1c(=O)[nH]c(=O)n2C`, the concentration for a half-maximal effect (EC50) in [1] was 2.22 µM (active); in data set [2], > 60 µM (not active). With `N#Cc1cc2c(nc1SCC(=O)N1CCOCC1)CCCCC2`, the EC50 in data set [5] was 2.01 µM (active). In the case of `CCc1c(C)sc(NC(=O)CN2CCN(C(=O)c3ccco3)CC2)c1C(=O)OC`, in data set [6], the half-maximal cytotoxic concentration (CC50) was 12.7 µM (active). Take `O=c1[nH]c(NCCO)nc2c1C1(CCCCC1)Cc1ccccc1-2`: the CC50 in data set [6] was > 50 µM (active).

Consider `CCc1nnc(NC(=O)CSc2nnc(CNc3cccc(C)c3)n2-c2ccccc2)s1`, for which the figures for the EC50 in data set [3] and in data set [4] were > 150 µM (inactive) and > 38 µM (not active), respectively. Regarding `COc1ccc(CCn2c(C)cc3c(c2=O)C(c2ccc4c(c2)OCO4)C(C#N)=C(N)O3)cc1OC` (centres undefined), the EC50 in data set [3] is > 160 µM (inactive); in [4] it was > 38 µM (not active). Regarding `CCCCn1c(-c2ccco2)nc2oc3ccccc3c(=O)c2c1=O`, the results for the EC50 (with Streptococcus; in data set [7]) were 46.1 µM (active) and 64 µM (active), respectively.

With `Cc1cc(C)n(C(=O)c2ccncc2)n1`, the EC50 in [5] is on record as > 195 µM (not active).

`O=[N+]([O-])c1ccc(C2CCCC/C2=N/OCc2ccc(F)cc2)c([N+](=O)[O-])c1` (centres undefined): the EC50 in data set [3] was > 160 µM (inactive); in data set [1] it was 0.492 µM (active); in [4], 21.6 µM (active); in [2], > 60 µM (not active). `Cc1ccc(NC(=O)CC2SC(N/N=C3\CCCc4ccccc43)=NC2=O)cc1` (centres undefined): the cytotoxic concentration (CC50) in [6] is 15.5 µM (active). Same read-out and setting: for `COC(=O)/C(=N/Nc1ccc(C)cc1)N1CCCc2ccccc21` the value was 22.3 µM (active); for `O=C(N/N=C/c1cccc(Oc2ccccc2)c1)c1cccc(Br)c1`, 17 µM (active). On to `c1ccc(-c2nn[nH]n2)nc1`, for which, in data set [5], the half-maximal effective concentration (EC50) is listed as > 195 µM (not active).

For the origin of these results see ChEMBL document CHEMBL1201862, “PubChem BioAssay data set” (2004).
